Data reported in the supplement of paper PMC10307832.

How the values were obtained:
Experiment in all cases: relative viability (nuclei count vs DMSO), 5 days (fraction); higher = more cells survive
KN-93 + Pictilisib = compound: CN(C/C=C/C1=CC=C(C=C1)Cl)CC2=CC=CC=C2N(CCO)S(=O)(=O)C3=CC=C(C=C3)OC [KN-93] + CS(=O)(=O)N1CCN(Cc2cc3nc(-c4cccc5[nH]ncc45)nc(N4CCOCC4)c3s2)CC1 [Pictilisib] (partner 1 µM)
Outline: (§1)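 Medians of duplicate plates are given as relative viability. That measure is the nuclei count in treated wells divided by the count in vehicle wells. Counts were taken on 4× images of lung cancer cell lines in 1536-well plates, 5 days after pin-tool dosing the day after seeding with one drug alone or a fixed anchor-drug dose plus five library-drug doses (not always all listed) in √10 steps.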

KN-93 + Lapatinib = compound: CN(C/C=C/C1=CC=C(C=C1)Cl)CC2=CC=CC=C2N(CCO)S(=O)(=O)C3=CC=C(C=C3)OC [KN-93] + CS(=O)(=O)CCNCc1ccc(-c2ccc3ncnc(Nc4ccc(OCc5cccc(F)c5)c(Cl)c4)c3c2)o1 [Lapatinib] (partner 2 µM)
Outline: as §1

KN-93 + Foretinib = compound: CN(C/C=C/C1=CC=C(C=C1)Cl)CC2=CC=CC=C2N(CCO)S(=O)(=O)C3=CC=C(C=C3)OC [KN-93] + COc1cc2c(Oc3ccc(NC(=O)C4(C(=O)Nc5ccc(F)cc5)CC4)cc3F)ccnc2cc1OCCCN1CCOCC1 [Foretinib] (partner 0.25 µM)
Outline: as §1

KN-93 + Linsitinib = compound: CN(C/C=C/C1=CC=C(C=C1)Cl)CC2=CC=CC=C2N(CCO)S(=O)(=O)C3=CC=C(C=C3)OC [KN-93] + C[C@]1(O)C[C@@H](c2nc(-c3ccc4ccc(-c5ccccc5)nc4c3)c3c(N)nccn32)C1 [Linsitinib] (partner 1 µM)
Outline: as §1

KN-93 + Phenformin = compound: CN(C/C=C/C1=CC=C(C=C1)Cl)CC2=CC=CC=C2N(CCO)S(=O)(=O)C3=CC=C(C=C3)OC [KN-93] + N=C(N)NC(=N)NCCc1ccccc1 [Phenformin] (partner 250 µM)
Outline: as §1

KN-93 + Olaparib = compound: CN(C/C=C/C1=CC=C(C=C1)Cl)CC2=CC=CC=C2N(CCO)S(=O)(=O)C3=CC=C(C=C3)OC [KN-93] + O=C(c1cc(Cc2n[nH]c(=O)c3ccccc23)ccc1F)N1CCN(C(=O)C2CC2)CC1 [Olaparib] (partner 8 µM)
Outline: as §1

KN-93 + Navitoclax = compound: CN(C/C=C/C1=CC=C(C=C1)Cl)CC2=CC=CC=C2N(CCO)S(=O)(=O)C3=CC=C(C=C3)OC [KN-93] + CC1(C)CCC(c2ccc(Cl)cc2)=C(CN2CCN(c3ccc(C(=O)NS(=O)(=O)c4ccc(N[C@H](CCN5CCOCC5)CSc5ccccc5)c(S(=O)(=O)C(F)(F)F)c4)cc3)CC2)C1 [Navitoclax] (partner 0.5 µM)
Outline: as §1

KN-93 + Decitabine = compound: CN(C/C=C/C1=CC=C(C=C1)Cl)CC2=CC=CC=C2N(CCO)S(=O)(=O)C3=CC=C(C=C3)OC [KN-93] + Nc1ncn([C@H]2C[C@H](O)[C@@H](CO)O2)c(=O)n1 [Decitabine] (partner 2 µM)
Outline: as §1

KN-93 + Alpelisib = compound: CN(C/C=C/C1=CC=C(C=C1)Cl)CC2=CC=CC=C2N(CCO)S(=O)(=O)C3=CC=C(C=C3)OC [KN-93] + Cc1nc(NC(=O)N2CCC[C@H]2C(N)=O)sc1-c1ccnc(C(C)(C)C(F)(F)F)c1 [Alpelisib] (partner 2 µM)
Outline: as §1

KN-93 + Crizotinib = compound: CN(C/C=C/C1=CC=C(C=C1)Cl)CC2=CC=CC=C2N(CCO)S(=O)(=O)C3=CC=C(C=C3)OC [KN-93] + C[C@@H](Oc1cc(-c2cnn(C3CCNCC3)c2)cnc1N)c1c(Cl)ccc(F)c1Cl [Crizotinib] (partner 1 µM)
Outline: as §1

KN-93 = compound: CN(C/C=C/C1=CC=C(C=C1)Cl)CC2=CC=CC=C2N(CCO)S(=O)(=O)C3=CC=C(C=C3)OC [KN-93]
Outline: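 Lung cancer cell lines were seeded into 1536-well plates, kept overnight at 37 °C and pinned with five library-drug doses (not always all listed) spaced by √10. After 5 days, nuclei were Hoechst-stained, imaged at 4× and counted with MetaXpress. Viability is treated-well nuclei over vehicle-well nuclei, taken as a median across plates. Plates needed control CV below 25% and at least one doubling.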

KN-93 + Pemetrexed = compound: CN(C/C=C/C1=CC=C(C=C1)Cl)CC2=CC=CC=C2N(CCO)S(=O)(=O)C3=CC=C(C=C3)OC [KN-93] + Nc1nc2[nH]cc(CCc3ccc(C(=O)N[C@@H](CCC(=O)O)C(=O)O)cc3)c2c(=O)[nH]1 [Pemetrexed] (partner 0.2 µM)
Outline: as §1

KN-93 + Palbociclib = compound: CN(C/C=C/C1=CC=C(C=C1)Cl)CC2=CC=CC=C2N(CCO)S(=O)(=O)C3=CC=C(C=C3)OC [KN-93] + CC(=O)c1c(C)c2cnc(Nc3ccc(N4CCNCC4)cn3)nc2n(C2CCCC2)c1=O [Palbociclib] (partner 0.5 µM)
Outline: as §1

KN-93 + OSI-027 = compound: CN(C/C=C/C1=CC=C(C=C1)Cl)CC2=CC=CC=C2N(CCO)S(=O)(=O)C3=CC=C(C=C3)OC [KN-93] + COc1cccc2cc(-c3nc([C@H]4CC[C@H](C(=O)O)CC4)n4ncnc(N)c34)[nH]c12 [OSI-027] (partner 0.5 µM)
Outline: as §1

KN-93 + AZD7762 = compound: CN(C/C=C/C1=CC=C(C=C1)Cl)CC2=CC=CC=C2N(CCO)S(=O)(=O)C3=CC=C(C=C3)OC [KN-93] + NC(=O)Nc1cc(-c2cccc(F)c2)sc1C(=O)N[C@H]1CCCNC1 [AZD7762] (partner 0.2 µM)
Outline: as §1

KN-93 + Trametinib = compound: CN(C/C=C/C1=CC=C(C=C1)Cl)CC2=CC=CC=C2N(CCO)S(=O)(=O)C3=CC=C(C=C3)OC [KN-93] + CC(=O)Nc1cccc(-n2c(=O)n(C3CC3)c(=O)c3c(Nc4ccc(I)cc4F)n(C)c(=O)c(C)c32)c1 [Trametinib] (partner 0.02 µM)
Outline: as §1

KN-93 + Vorinostat = compound: CN(C/C=C/C1=CC=C(C=C1)Cl)CC2=CC=CC=C2N(CCO)S(=O)(=O)C3=CC=C(C=C3)OC [KN-93] + O=C(CCCCCCC(=O)Nc1ccccc1)NO [Vorinostat] (partner 1 µM)
Outline: as §1

KN-93 + Tozasertib = compound: CN(C/C=C/C1=CC=C(C=C1)Cl)CC2=CC=CC=C2N(CCO)S(=O)(=O)C3=CC=C(C=C3)OC [KN-93] + Cc1cc(Nc2cc(N3CCN(C)CC3)nc(Sc3ccc(NC(=O)C4CC4)cc3)n2)n[nH]1 [Tozasertib] (partner 0.1 µM)
Outline: as §1

A549 showed a relative viability (KN-93 + Pictilisib; first compound 0.253 µM) of 0.609, a relative viability (KN-93 + Pictilisib; first compound 2.53 µM) of 1 and a relative viability (KN-93 + Pictilisib; first compound 8 µM) of 0.225. It also gave a relative viability (KN-93 + Lapatinib; first compound 0.08 µM) of 0.863, a relative viability (KN-93 + Lapatinib; first compound 0.253 µM) of 0.937 and a relative viability (KN-93 + Lapatinib; first compound 2.53 µM) of 1.01. It also gave a relative viability (KN-93 + Lapatinib; first compound 8 µM) of 0.385, a relative viability (KN-93 + Foretinib; first compound 0.08 µM) of 0.911 and a relative viability (KN-93 + Foretinib; first compound 0.253 µM) of 1.14. The relative viability (KN-93 + Foretinib; first compound 2.53 µM) was 0.995, the relative viability (KN-93 + Foretinib; first compound 8 µM) was 0.585 and the relative viability (KN-93 + Linsitinib; first compound 0.08 µM) was 0.519. The relative viability (KN-93 + Linsitinib; first compound 0.253 µM) was 0.722, the relative viability (KN-93 + Linsitinib; first compound 2.53 µM) was 0.746 and the relative viability (KN-93 + Linsitinib; first compound 8 µM) was 0.476. The relative viability (KN-93 + Phenformin; first compound 0.08 µM) was 0.183, the relative viability (KN-93 + Phenformin; first compound 0.253 µM) was 0.347 and the relative viability (KN-93 + Phenformin; first compound 2.53 µM) was 0.922. For the same cell line, the relative viability (KN-93 + Phenformin; first compound 8 µM) was 0.132, the relative viability (KN-93 + Olaparib; first compound 0.08 µM) was 0.303 and the relative viability (KN-93 + Olaparib; first compound 0.253 µM) was 0.336. For the same cell line, the relative viability (KN-93 + Olaparib; first compound 2.53 µM) was 0.65, the relative viability (KN-93 + Olaparib; first compound 8 µM) was 0.0828 and the relative viability (KN-93 + Navitoclax; first compound 0.08 µM) was 1.06. The relative viability (KN-93 + Navitoclax; first compound 0.253 µM) was 1.33, the relative viability (KN-93 + Navitoclax; first compound 2.53 µM) was 1.44 and the relative viability (KN-93 + Navitoclax; first compound 8 µM) was 0.513. It also gave a relative viability (KN-93 + Decitabine; first compound 0.253 µM) of 0.285, a relative viability (KN-93 + Decitabine; first compound 2.53 µM) of 0.313 and a relative viability (KN-93 + Decitabine; first compound 8 µM) of 0.294. The relative viability (KN-93 + Alpelisib; first compound 0.08 µM) was 0.717, the relative viability (KN-93 + Alpelisib; first compound 0.253 µM) was 0.914 and the relative viability (KN-93 + Alpelisib; first compound 2.53 µM) was 0.849. The relative viability (KN-93 + Alpelisib; first compound 8 µM) was 0.546, the relative viability (KN-93 + Crizotinib; first compound 0.08 µM) was 0.847 and the relative viability (KN-93 + Crizotinib; first compound 0.253 µM) was 1.05. For the same cell line, the relative viability (KN-93 + Crizotinib; first compound 2.53 µM) was 0.944, the relative viability (KN-93 + Crizotinib; first compound 8 µM) was 0.28 and the relative viability (KN-93; 0.08 µM) was 0.79. The relative viability (KN-93; 0.253 µM) was 1.06, the relative viability (KN-93; 2.53 µM) was 1.26 and the relative viability (KN-93; 8 µM) was 0.553.
Work on NCI-H1648 yielded a relative viability (KN-93 + Pemetrexed; first compound 0.08 µM) of 0.717, a relative viability (KN-93 + Pemetrexed; first compound 0.253 µM) of 0.874 and a relative viability (KN-93 + Pemetrexed; first compound 2.53 µM) of 0.788. The relative viability (KN-93 + Pemetrexed; first compound 8 µM) was 0.716, the relative viability (KN-93 + Palbociclib; first compound 0.08 µM) was 0.251 and the relative viability (KN-93 + Palbociclib; first compound 0.253 µM) was 0.259. For the same cell line, the relative viability (KN-93 + Palbociclib; first compound 2.53 µM) was 0.295, the relative viability (KN-93 + Palbociclib; first compound 8 µM) was 0.291 and the relative viability (KN-93 + OSI-027; first compound 0.08 µM) was 0.263. The relative viability (KN-93 + OSI-027; first compound 0.253 µM) was 0.254, the relative viability (KN-93 + OSI-027; first compound 2.53 µM) was 0.229 and the relative viability (KN-93 + OSI-027; first compound 8 µM) was 0.202. For the same cell line, the relative viability (KN-93 + AZD7762; first compound 0.08 µM) was 0.647, the relative viability (KN-93 + AZD7762; first compound 0.253 µM) was 0.727 and the relative viability (KN-93 + AZD7762; first compound 2.53 µM) was 0.82. The relative viability (KN-93 + AZD7762; first compound 8 µM) was 0.663, the relative viability (KN-93 + Olaparib; first compound 0.08 µM) was 0.56 and the relative viability (KN-93 + Olaparib; first compound 0.253 µM) was 0.724. The relative viability (KN-93 + Olaparib; first compound 2.53 µM) was 0.568, the relative viability (KN-93 + Olaparib; first compound 8 µM) was 0.711 and the relative viability (KN-93 + Decitabine; first compound 0.08 µM) was 0.459. The relative viability (KN-93 + Decitabine; first compound 0.253 µM) was 0.45, the relative viability (KN-93 + Decitabine; first compound 2.53 µM) was 0.557 and the relative viability (KN-93 + Decitabine; first compound 8 µM) was 0.34. For the same cell line, the relative viability (KN-93 + Trametinib; first compound 0.08 µM) was 0.403, the relative viability (KN-93 + Trametinib; first compound 0.253 µM) was 0.445 and the relative viability (KN-93 + Trametinib; first compound 2.53 µM) was 0.381. The relative viability (KN-93 + Trametinib; first compound 8 µM) was 0.407, the relative viability (KN-93 + Vorinostat; first compound 0.08 µM) was 0.485 and the relative viability (KN-93 + Vorinostat; first compound 0.253 µM) was 0.423. For the same cell line, the relative viability (KN-93 + Vorinostat; first compound 2.53 µM) was 0.322, the relative viability (KN-93 + Vorinostat; first compound 8 µM) was 0.807 and the relative viability (KN-93 + Tozasertib; first compound 0.08 µM) was 0.426. For the same cell line, the relative viability (KN-93 + Tozasertib; first compound 0.253 µM) was 0.378, the relative viability (KN-93 + Tozasertib; first compound 2.53 µM) was 0.389 and the relative viability (KN-93 + Tozasertib; first compound 8 µM) was 0.331. The relative viability (KN-93; 0.08 µM) was 0.704, the relative viability (KN-93; 0.253 µM) was 0.792 and the relative viability (KN-93; 2.53 µM) was 0.968. It also gave a relative viability (KN-93; 8 µM) of 0.526.
